Measurements taken from patent publication US10414759B2, “Phenylthiazoles and uses thereof” (Purdue Research Foundation, priority 2017, dated 2019).
Values after ≈ are worked out from the molar mass of the structure shown.

Legend:
S. aureus ATCC 6538 = assay: MIC/MBC S. aureus strains (Table 8); type: cell-based; details: Staphylococcus aureus, ATCC6538
Experimental: (§1) A bacterial solution equivalent to 0.5 McFarland standard was prepared and diluted in cation-adjusted Mueller-Hinton broth (CAMHB) to achieve a bacterial concentration of about 5×10^5 CFU/mL and seeded in 96-well plates. Enterococcus faecium was diluted in brain heart infusion broth. Enterococcus faecalis, Streptococcus pneumonia and Listeria monocytogenes were diluted in tryptone soya broth (TSB).

MRSA NRS123 (USA400) = assay: MIC/MBC S. aureus strains (Table 8); type: cell-based; details: Staphylococcus aureus
Experimental: as §1

MRSA NRS119 = assay: MIC/MBC S. aureus strains (Table 8); type: cell-based; details: Staphylococcus aureus
Experimental: as §1

MRSA NRS385 = assay: MIC/MBC S. aureus strains (Table 8); type: cell-based; details: Staphylococcus aureus
Experimental: as §1

MRSA NRS386 = assay: MIC/MBC S. aureus strains (Table 8); type: cell-based; details: Staphylococcus aureus
Experimental: as §1

MRSA NRS384 (USA300) = assay: MIC/MBC S. aureus strains (Table 8); type: cell-based; details: Staphylococcus aureus
Experimental: as §1

MRSA (USA300) = assay: Time-kill assay; type: cell-based, Staphylococcus aureus; details: 3.0×MIC; for bactericidal / bacteriostatic behaviour in time-kill assay, in words: MRSA; for time to completely eradicate the MRSA inoculum: t-butyl series
Experimental: Aliquots (100 μL) were taken from each sample after 2, 4, 6, 8, 10, 12, and 24 hours, serially diluted in phosphate-buffered saline, and transferred to Trypticase soy agar (TSA) (Becton, Dickinson and Company, Sparks, Md., USA) plates. Plates were incubated at 37° C. for at least 16 hours before counting viable CFU/mL to determine the time required to reduce the bacterial cell count by 3-log10.

[1] = tested on: Enterococcus faecium ATCC 700221 (VRE); assay: MIC/MBC Gram-positive pathogens (Table 9); type: cell-based; details: Table 9; Enterococcus faecium ATCC 700221 (VRE); read-out: MIC
Experimental: (§2) The minimum inhibitory concentration (MIC) of tested compounds and control antibiotics were determined using the broth microdilution method in accordance with the recommendations contained in the Clinical and Laboratory Standards Institute guidelines, against methicillin-sensitive (ATCC 6538 and NRS107), methicillin-resistant (MRSA), and vancomycin-resistant (VRSA) Staphylococcus aureus, Staphylococcus epidermidis, Enterococcus faecalis, E. faecium, Listeria monocytogenes, and Streptococcus pneumoniae clinical isolates. A bacterial solution equivalent to 0.5 McFarland standard was prepared and diluted in cation-adjusted Mueller-Hinton broth (CAMHB) to achieve a bacterial concentration of about 5×10^5 CFU/mL and seeded in 96-well plates. Enterococcus faecium was diluted in brain heart infusion broth. Enterococcus faecalis, Streptococcus pneumonia and Listeria monocytogenes were diluted in tryptone soya broth (TSB). Compounds and control drugs were added in the first row of 96-well plates and serially diluted (to achieve a concentration gradient ranging from 128 to 1 μg/mL). Plates were then incubated aerobically at 37° C. for at least 18 hours. The minimum bactericidal concentration (MBC) of the active compounds was tested by plating 5 μL from wells with no growth onto Tryptic soy agar (TSA) plates.

S. aureus NRS107 = assay: MIC/MBC S. aureus strains (Table 8); type: cell-based, Staphylococcus aureus; details: for MBC / MIC: Staphylococcus aureus, Table 8, S. aureus NRS107
Experimental: as §1

[2] = tested on: human colorectal (Caco-2) cell; assay: In vitro cytotoxicity against Caco-2 cells (MTS); type: cell-based; details: at 32 μg/mL
Experimental: Tested compounds were assayed (at concentrations of 16, 32, and 64 μg/mL) against a human colorectal (Caco-2) cell to determine the potential toxic effect to mammalian cells in vitro. Briefly, cells were cultured in Dulbecco's Modified Eagle Medium (DMEM) supplemented with 20% fetal bovine serum (FBS), non-essential amino acids (1×), and penicillin-streptomycin at 37° C. with CO2 (5%). Control cells received DMSO alone at a concentration equal to that in drug-treated cell samples. The cells were incubated with the compounds (in triplicate) in a 96-well plate at 37° C. with CO2 (5%) for two hours. The assay reagent MTS 3-(4,5-dimethylthiazol-2-yl)-5-(3-carboxymethoxyphenyl)-2-(4-sulfophenyl)-2H-tetrazolium) (Promega, Madison, Wis., USA) was subsequently added and the plate was incubated for four hours. Absorbance readings (at OD490) were taken using a kinetic microplate reader (Molecular Devices, Sunnyvale, Calif., USA). The quantity of viable cells after treatment with each compound was expressed as a percentage of the viability of DMSO-treated control cells (average of triplicate wells±standard deviation). The toxicity data was analyzed via a two-way ANOVA, with post hoc Sidak's multiple comparisons test (P<0.05), utilizing GraphPad Prism 6.0 (GraphPad Software, La Jolla, Calif.).

VRS12 (VRSA) = assay: MIC/MBC S. aureus strains (Table 8); type: cell-based; details: Staphylococcus aureus, Table 8, VRS12 (VRSA); for MBC: read-out: MBC; for MIC: read-out: MIC
Experimental: as §2

VRS10 (VRSA) = assay: MIC/MBC S. aureus strains (Table 8); type: cell-based; details: Staphylococcus aureus, Table 8, VRS10 (VRSA); for MBC: read-out: MBC; for MIC: read-out: MIC
Experimental: as §2

MRSA (2658 RCMB) = assay: MIC against MRSA (2658 RCMB), broth dilution; type: cell-based, Staphylococcus aureus; details: Staphylococcus aureus; Table 7; initial screening, MRSA (2658 RCMB); read-out: minimum inhibitory concentration (MIC)
Experimental: (§3) Bacteria were cultured in cation-adjusted Mueller Hinton broth in a 96-well plate. Compounds, using triplicate samples, were added to the plate and serially diluted. […] Plates were visually inspected and the MIC was categorized as the concentration at which no visible growth of bacteria was observed. The average of triplicate MIC determinations is reported.
as §1

[3] = tested on: Enterococcus faecalis ATCC 51299 (VRE); assay: MIC/MBC Gram-positive pathogens (Table 9); type: cell-based; details: Table 9, Enterococcus faecalis ATCC 51299 (VRE)
Experimental: as §1

[4] = tested on: Methicillin-resistant Staphylococcus epidermidis NRS101; assay: MIC/MBC Gram-positive pathogens (Table 9); type: cell-based
Experimental: as §1

[5] = tested on: Listeria monocytogenes ATCC 19111; assay: MIC/MBC Gram-positive pathogens (Table 9); type: cell-based
Experimental: as §1

[6] = tested on: Methicillin-resistant Streptococcus pneumoniae ATCC 700677; assay: MIC/MBC Gram-positive pathogens (Table 9); type: cell-based; details: ATCC700677
Experimental: as §1

[7] = tested on: Cephalosporin-resistant Streptococcus pneumoniae ATCC 51916; assay: MIC/MBC Gram-positive pathogens (Table 9); type: cell-based; details: ATCC51916
Experimental: as §1

NRS382 (MRSA USA100) = assay: MIC/MBC clinical isolate panel (Table 3); type: cell-based, S. aureus; details: Staphylococcus aureus, Table 3, NRS382 (MRSA USA100)
Experimental: as §3, §1

NRS72 (MSSA) = assay: MIC/MBC clinical isolate panel (Table 3); type: cell-based, S. aureus; details: Staphylococcus aureus, Table 3, NRS72 (MSSA)
Experimental: as §3, §1

NRS384 (MRSA USA300) = assay: MIC/MBC clinical isolate panel (Table 3); type: cell-based, S. aureus; details: Staphylococcus aureus; Table 3; NRS384 (MRSA USA300)
Experimental: as §3, §1

NRS123 (MRSA USA400) = assay: MIC/MBC clinical isolate panel (Table 3); type: cell-based, S. aureus; details: Staphylococcus aureus; Table 3; NRS123 (MRSA USA400)
Experimental: as §3, §1

NRS383 (MRSA USA200) = assay: MIC/MBC clinical isolate panel (Table 3); type: cell-based, S. aureus; details: Staphylococcus aureus, Table 3, NRS383 (MRSA USA200)
Experimental: as §3, §1

VRE ATCC 700221 = assay: MIC/MBC clinical isolate panel (Table 3); type: cell-based, Enterococcus faecium; details: Enterococcus, Table 3, VRE ATCC 700221
Experimental: as §3, with “MRSA clinical isolates, and vancomycin-resistant Staphylococcus aureus (VRSA) strain were obtained through the Network of Antimicrobial Resistance in Staphylococcus aureus (NARSA) program. In addition, vancomycin-resistant Enterococcus faecium (VRE) strain was obtained from the ATCC. Bacteria” for “Bacteria”
as §2

VRSA10 = assay: MIC/MBC clinical isolate panel (Table 3); type: cell-based, S. aureus; details: Staphylococcus aureus, Table 3, VRSA10
Experimental: as §3, with “MRSA clinical isolates, and vancomycin-resistant Staphylococcus aureus (VRSA) strain were obtained through the Network of Antimicrobial Resistance in Staphylococcus aureus (NARSA) program. In addition, vancomycin-resistant Enterococcus faecium (VRE) strain was obtained from the ATCC. Bacteria” for “Bacteria”
as §2

[8] = ATCC19111, Table 9, Listeria monocytogenes ATCC 19111

Structure (SMILES)	MBC (S. aureus ATCC 6538)	MIC (S. aureus ATCC 6538)	MBC (MRSA NRS123 (USA400))	MIC (MRSA NRS123 (USA400))	MBC (MRSA NRS119)	MIC (MRSA NRS119)	MBC (MRSA NRS385)	MIC (MRSA NRS385)	MBC (MRSA NRS386)	MIC (MRSA NRS386)	MBC (MRSA NRS384 (USA300))	MIC (MRSA NRS384 (USA300))	bactericidal / bacteriostatic behaviour in time-kill assay, in words (MRSA (USA300))	time to completely eradicate the MRSA inoculum (MRSA (USA300))	MIC [1]	MBC (S. aureus NRS107)	MIC (S. aureus NRS107)	MBC (VRS12 (VRSA))	MIC (VRS12 (VRSA))	MBC (VRS10 (VRSA))	other results
Cc1nc(-c2ccc(C(C)(C)C)cc2)sc1-c1ccnc(NC(=N)N(C)C)n1 [Compound 58, 3-(4-(2-(4-(tert-Butyl)phenyl)-4-methylthiazol-5-yl)pyrimidin-2-yl)-1,1-dimethylguanidine]	8 µg/mL (≈ 20.3 µM)	8 µg/mL (≈ 20.3 µM)	8 µg/mL (≈ 20.3 µM)	8 µg/mL (≈ 20.3 µM)	8 µg/mL (≈ 20.3 µM)	8 µg/mL (≈ 20.3 µM)	8 µg/mL (≈ 20.3 µM)	8 µg/mL (≈ 20.3 µM)	8 µg/mL (≈ 20.3 µM)	8 µg/mL (≈ 20.3 µM)	8 µg/mL (≈ 20.3 µM)	8 µg/mL (≈ 20.3 µM)	rapid bactericidal activity	within two to four hours	8 µg/mL (≈ 20.3 µM)	8 µg/mL (≈ 20.3 µM)	8 µg/mL (≈ 20.3 µM)	8 µg/mL (≈ 20.3 µM)	8 µg/mL (≈ 20.3 µM)	8 µg/mL (≈ 20.3 µM)	tolerability to human colorectal cells, in words [2]: intolerable; MIC (VRS10 (VRSA)): 8 µg/mL (≈ 20.3 µM); MIC (MRSA (2658 RCMB)): 1.17 µg/mL (≈ 2.97 µM); MIC [3]: 8 µg/mL (≈ 20.3 µM); MBC [4]: 8 µg/mL (≈ 20.3 µM); MIC [4]: 8 µg/mL (≈ 20.3 µM); MBC [5, 8]: 8 µg/mL (≈ 20.3 µM); MIC [5, 8]: 8 µg/mL (≈ 20.3 µM)
Cc1nc(-c2ccc(C(C)(C)C)cc2)sc1-c1ccnc(NC(=N)c2ccccn2)n1 [Compound 64, N-(4-(2-(4-(tert-Butyl)phenyl)-4-methylthiazol-5-yl)pyrimidin-2-yl) picolinimidamide]	4 µg/mL (≈ 9.33 µM)	2 µg/mL (≈ 4.67 µM)	2 µg/mL (≈ 4.67 µM)	2 µg/mL (≈ 4.67 µM)	4 µg/mL (≈ 9.33 µM)	4 µg/mL (≈ 9.33 µM)	4 µg/mL (≈ 9.33 µM)	4 µg/mL (≈ 9.33 µM)	2 µg/mL (≈ 4.67 µM)	2 µg/mL (≈ 4.67 µM)	4 µg/mL (≈ 9.33 µM)	4 µg/mL (≈ 9.33 µM)	rapid bactericidal activity	≤ 24 h	4 µg/mL (≈ 9.33 µM)	> 64 µg/mL	64 µg/mL (≈ 149 µM)	4 µg/mL (≈ 9.33 µM)	4 µg/mL (≈ 9.33 µM)	4 µg/mL (≈ 9.33 µM)	time to three-log10 reduction in the initial inoculum of MRSA (MRSA (USA300)): within six hours; activity against S. aureus NRS107, in words (S. aureus NRS107; text b117): inactive; MIC (VRS10 (VRSA)): 2 µg/mL (≈ 4.67 µM); MIC (MRSA (2658 RCMB)): 0.78 µg/mL (≈ 1.82 µM); MIC [3]: 64 µg/mL (≈ 149 µM); MBC ([3]; read-out: MBC): > 64 µg/mL; MBC [4]: > 64 µg/mL; MIC [4]: 64 µg/mL (≈ 149 µM); MBC [6]: 8 µg/mL (≈ 18.7 µM); MIC [6]: 8 µg/mL (≈ 18.7 µM); MBC [7]: 4 µg/mL (≈ 9.33 µM); MIC [7]: 4 µg/mL (≈ 9.33 µM); MIC [5, 8]: 2 µg/mL (≈ 4.67 µM); MBC values relative to MIC values against L. monocytogenes ([5]; text b122): more than three-fold higher
CC(=O)NC[C@H]1CN(c2ccc(N3CCOCC3)c(F)c2)C(=O)O1 [Linezolid, linezolid]				1 µg/mL (≈ 2.96 µM)	> 64 µg/mL	32 µg/mL (≈ 94.9 µM)			64 µg/mL (≈ 190 µM)			1 µg/mL (≈ 2.96 µM)						64 µg/mL (≈ 190 µM)		64 µg/mL (≈ 190 µM)	MBC (NRS382 (MRSA USA100)): 8 µg/mL (≈ 23.7 µM); MIC (NRS382 (MRSA USA100); read-out: MIC): 1 µg/mL (≈ 2.96 µM); MBC (NRS72 (MSSA)): 2 µg/mL (≈ 5.93 µM); MIC (NRS72 (MSSA); read-out: MIC): 1 µg/mL (≈ 2.96 µM); MBC (NRS384 (MRSA USA300)): 4 µg/mL (≈ 11.9 µM); MBC (NRS123 (MRSA USA400)): 16 µg/mL (≈ 47.4 µM); MBC (NRS383 (MRSA USA200)): 32 µg/mL (≈ 94.9 µM); MIC (NRS383 (MRSA USA200); read-out: MIC): 1 µg/mL (≈ 2.96 µM); MBC (VRE ATCC 700221; read-out: MBC): 32 µg/mL (≈ 94.9 µM); MIC (VRE ATCC 700221; read-out: MIC): 1 µg/mL (≈ 2.96 µM); MBC (VRSA10; read-out: MBC): 2 µg/mL (≈ 5.93 µM); MIC (VRSA10; read-out: MIC): 1 µg/mL (≈ 2.96 µM)
